Reference: PubChem BioAssay (NCI)
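Results reflect a 48-hour exposure of cells in 96-well plates to compound at five concentrations. GI50 is the concentration that inhibits growth by half. At the TGI there is no net growth.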

Experiments:
Assay in all cases: DTP human tumour cell line panel, 48 h
SW-620 colon = tested on: SW-620 colon
SN12C renal = tested on: SN12C renal
EKVX NSCLC = tested on: EKVX NSCLC
PC-3 prostate = tested on: PC-3 prostate
KM12 colon = tested on: KM12 colon
HT29 colon = tested on: HT29 colon
CAKI-1 renal = tested on: CAKI-1 renal
SR leukemia = tested on: SR leukemia
MCF7 breast = tested on: MCF7 breast
A498 renal = tested on: A498 renal
HCT-15 colon = tested on: HCT-15 colon
U251 CNS = tested on: U251 CNS
HS 578T breast = tested on: HS 578T breast
MDA-MB-468 breast = tested on: MDA-MB-468 breast
HOP-92 NSCLC = tested on: HOP-92 NSCLC
NCI-H522 lung = tested on: NCI-H522 lung
NCI-H460 lung = tested on: NCI-H460 lung
OVCAR-5 ovarian = tested on: OVCAR-5 ovarian
CCRF-CEM leukemia = tested on: CCRF-CEM leukemia
M14 melanoma = tested on: M14 melanoma
HCC-2998 colon = tested on: HCC-2998 colon
UACC-257 melanoma = tested on: UACC-257 melanoma
RXF 393 renal = tested on: RXF 393 renal
SK-OV-3 ovarian = tested on: SK-OV-3 ovarian
786-0 renal = tested on: 786-0 renal
MALME-3M melanoma = tested on: MALME-3M melanoma
HOP-62 NSCLC = tested on: HOP-62 NSCLC
SK-MEL-28 melanoma = tested on: SK-MEL-28 melanoma
MOLT-4 leukemia = tested on: MOLT-4 leukemia
MDA-MB-435 = tested on: MDA-MB-435
TK-10 renal = tested on: TK-10 renal
OVCAR-8 ovarian = tested on: OVCAR-8 ovarian
K-562 leukemia = tested on: K-562 leukemia
A549 NSCLC = tested on: A549 NSCLC
NCI-H23 lung = tested on: NCI-H23 lung
IGROV1 ovarian = tested on: IGROV1 ovarian
SF-268 CNS = tested on: SF-268 CNS
T-47D breast = tested on: T-47D breast
RPMI-8226 leukemia = tested on: RPMI-8226 leukemia
SF-539 CNS = tested on: SF-539 CNS
COLO 205 colon = tested on: COLO 205 colon
SNB-19 CNS = tested on: SNB-19 CNS
OVCAR-4 ovarian = tested on: OVCAR-4 ovarian
SF-295 CNS = tested on: SF-295 CNS
HL-60(TB) leukemia = tested on: HL-60(TB) leukemia
NCI/ADR-RES ovarian = tested on: NCI/ADR-RES ovarian
UACC-62 melanoma = tested on: UACC-62 melanoma
ACHN renal = tested on: ACHN renal
NCI-H226 lung = tested on: NCI-H226 lung
SK-MEL-5 melanoma = tested on: SK-MEL-5 melanoma
HCT-116 colon = tested on: HCT-116 colon
OVCAR-3 ovarian = tested on: OVCAR-3 ovarian
DU-145 prostate = tested on: DU-145 prostate
LOX IMVI melanoma = tested on: LOX IMVI melanoma
BT-549 breast = tested on: BT-549 breast

What does the source list for `O=C(CSc1nc2sc3c(c2c(=O)n1-c1ccc(Cl)cc1)CCCC3)N/N=C/C=C/c1ccccc1`?
GI50 (SW-620 colon): 2.7 µM; TGI (SW-620 colon): 8.75 µM; GI50 (SN12C renal): 18 µM; TGI (SN12C renal): > 100 µM; GI50 (EKVX NSCLC): 8.81 µM; TGI (EKVX NSCLC): > 100 µM; GI50 (PC-3 prostate): 3.04 µM; TGI (PC-3 prostate): 17.9 µM; GI50 (KM12 colon): 16.7 µM; TGI (KM12 colon): 63.6 µM; GI50 (HT29 colon): 2.61 µM; TGI (HT29 colon): 6.48 µM; GI50 (CAKI-1 renal): 43.1 µM; TGI (CAKI-1 renal): > 100 µM; GI50 (SR leukemia): 26.5 µM; TGI (SR leukemia): > 100 µM; GI50 (MCF7 breast): 3.35 µM; TGI (MCF7 breast): 18.4 µM; GI50 (A498 renal): 7.71 µM; TGI (A498 renal): 25.4 µM; GI50 (HCT-15 colon): 2.96 µM; TGI (HCT-15 colon): 10.4 µM; GI50 (U251 CNS): 3.3 µM; TGI (U251 CNS): 11.7 µM; GI50 (HS 578T breast): 4.64 µM; TGI (HS 578T breast): 56.5 µM; GI50 (MDA-MB-468 breast): 1.85 µM; TGI (MDA-MB-468 breast): 4.11 µM; GI50 (HOP-92 NSCLC): 3.91 µM; TGI (HOP-92 NSCLC): 25.9 µM; GI50 (NCI-H522 lung): 3.17 µM; TGI (NCI-H522 lung): 12.6 µM; GI50 (NCI-H460 lung): 3.14 µM; TGI (NCI-H460 lung): 10.6 µM; GI50 (OVCAR-5 ovarian): 4.87 µM; TGI (OVCAR-5 ovarian): 27.7 µM; GI50 (CCRF-CEM leukemia): 11.5 µM; TGI (CCRF-CEM leukemia): 69.9 µM; GI50 (M14 melanoma): 3.44 µM; TGI (M14 melanoma): 15 µM; GI50 (HCC-2998 colon): 2.75 µM; TGI (HCC-2998 colon): 7.05 µM; GI50 (UACC-257 melanoma): 11.8 µM; TGI (UACC-257 melanoma): 87.8 µM; GI50 (RXF 393 renal): 1.93 µM; TGI (RXF 393 renal): 4.75 µM; GI50 (SK-OV-3 ovarian): 14.2 µM; TGI (SK-OV-3 ovarian): 38.4 µM; GI50 (786-0 renal): 5.51 µM; TGI (786-0 renal): 20.7 µM; GI50 (MALME-3M melanoma): 1.99 µM; TGI (MALME-3M melanoma): 4.85 µM; GI50 (HOP-62 NSCLC): 3.31 µM; TGI (HOP-62 NSCLC): 13 µM; GI50 (SK-MEL-28 melanoma): 4.23 µM; TGI (SK-MEL-28 melanoma): 16.5 µM; GI50 (MOLT-4 leukemia): 3.57 µM; TGI (MOLT-4 leukemia): 12.9 µM; GI50 (MDA-MB-435): 5.28 µM; TGI (MDA-MB-435): 22.5 µM; GI50 (TK-10 renal): 2.8 µM; TGI (TK-10 renal): 9.84 µM; GI50 (OVCAR-8 ovarian): 3.17 µM; TGI (OVCAR-8 ovarian): 11.7 µM; GI50 (K-562 leukemia): 4.68 µM; TGI (K-562 leukemia): > 100 µM; GI50 (A549 NSCLC): 3.58 µM; TGI (A549 NSCLC): 15.5 µM; GI50 (NCI-H23 lung): 2.12 µM; TGI (NCI-H23 lung): 5.78 µM; GI50 (IGROV1 ovarian): 14.1 µM; TGI (IGROV1 ovarian): 35.7 µM; GI50 (SF-268 CNS): 24.9 µM; TGI (SF-268 CNS): > 100 µM; GI50 (T-47D breast): 2.39 µM; TGI (T-47D breast): 6.92 µM; GI50 (RPMI-8226 leukemia): 4.51 µM; TGI (RPMI-8226 leukemia): 34 µM; GI50 (SF-539 CNS): 24.6 µM; TGI (SF-539 CNS): > 100 µM; GI50 (COLO 205 colon): 1.71 µM; TGI (COLO 205 colon): 3.4 µM; GI50 (SNB-19 CNS): 18.2 µM; TGI (SNB-19 CNS): > 100 µM; GI50 (OVCAR-4 ovarian): 3.42 µM; TGI (OVCAR-4 ovarian): 15.9 µM; GI50 (SF-295 CNS): 4.92 µM; TGI (SF-295 CNS): 22.4 µM; GI50 (HL-60(TB) leukemia): > 100 µM; TGI (HL-60(TB) leukemia): > 100 µM; GI50 (NCI/ADR-RES ovarian): 3.58 µM; TGI (NCI/ADR-RES ovarian): 16 µM; GI50 (UACC-62 melanoma): 2.84 µM; TGI (UACC-62 melanoma): 10.9 µM; GI50 (ACHN renal): 4.22 µM; TGI (ACHN renal): 29.2 µM; GI50 (NCI-H226 lung): 5.19 µM; TGI (NCI-H226 lung): 23 µM; GI50 (SK-MEL-5 melanoma): 3.12 µM; TGI (SK-MEL-5 melanoma): 10.8 µM; GI50 (HCT-116 colon): 3.03 µM; TGI (HCT-116 colon): 13 µM; GI50 (OVCAR-3 ovarian): 100 µM; TGI (OVCAR-3 ovarian): > 100 µM; GI50 (DU-145 prostate): 5.3 µM; TGI (DU-145 prostate): > 100 µM; GI50 (LOX IMVI melanoma): 9.02 µM; TGI (LOX IMVI melanoma): 22.2 µM; GI50 (BT-549 breast): 3.15 µM; TGI (BT-549 breast): 7.65 µM
